In patent publication US20090018212A1, “METHODS OF RELIEVING STRESS” (Neuroscent Pty Ltd., priority 2005, published 2009):

What was measured:
[1] = tested on: sympathetic neurotransmission; assay: Sympathetic neurotransmission in isolated vasa differentia after chronic stress of social deprivation and predator exposure; assay type: in vivo; conditions: mice, social deprivation and presence of predators 10 to 12 days; odour diluted in triethyl citrate
Procedure: The effects of odours on experimental animals exposed to stressors that cause chronic stress was assessed. Mice were divided into two groups, a control group exposed to minimal stress and a group exposed to severe stress by concurrent isolation and exposure to a predator. Each group was divided into sub-groups, one not exposed to any odour (control), one exposed to triethyl citrate vehicle (control), and the other groups exposed to an odour or a mixture of odours selected from cis-2-hexen-1-ol, trans-3-hexen-1-ol, trans-2-hexen-1-ol, cis-3-hexen-1-ol, trans-2-hexenal and α-pinene. Each odour compound was diluted (0.01 to 0.05% volume) with triethyl citrate. The solutions (0.5 mL) were placed on filter paper strips and placed within 30 cm of the animal cage. The response to stress was assessed using any or a combination of telemetry measurements, post-mortem electrophysiological studies and biochemical assays of blood samples.
Isolated vasa differentia were used to assess the effects of prolonged exposure to stress and its attenuation by odours. Following exposure of the mice to one of the stressors with or without odour, the level of neurotransmission from sympathetic varicosities was examined using standard focal extracellular recording methods (Lavidis and Bennett, 1992, 1993a, 1993b; D'Arbe et al., 2002). […] The extent of the increase reflects the level of stress the animal was exposed to during the previous 6-14 days (D'Arbe et al., 1999, D'Arbe et al., 2002).
Mice were exposed to two stressors concurrently, social deprivation and the presence of predators (rats in separate cages) for 10 to 12 days with or without the following odours or combination of odours, cis-2-hexen-1-ol, trans-2-hexen-1-ol, trans-3-hexen-1-ol, trans-2-hexenal, cis-3-hexen-1-ol, α-pinene and a combination of cis-3-hexen-1-ol and trans-2-hexenal. Two controls were used: mice not exposed to stress and mice exposed to stress together with triethyl citrate vehicle. The mice were monitored for up to 4 days after the stressors were removed.
Mice were placed in cages with one mouse per cage (social deprivation) in a room that contained cages with rats (predators) without odours (control). […] Box plots of the excitatory junction currents (EJC) obtained by electrophysiological methods are shown in FIG. 2 (control) and FIG. 3 (treated) and indicate the maximum EJC amplitude (Max), the distribution of 3rd quartiles (Q3), the median, the distribution of the 1st quartiles (Q1) and the distribution of the means. The data is from 16 animals from each treatment with at least 40 recording sites.

[2] = tested on: smooth muscle of mouse vas deferens; assay: Organ bath safety test: success rate of transmission after application of the chemicals; assay type: cell-based; conditions: 1.0% vol; for function of smooth muscle (success rate of transmission): evaluated over 40 minutes
Procedure: Safety data for the components of the combination of the invention have been obtained by applying the chemicals to smooth muscle in organ bath experiments. The mouse vas deferens was isolated and placed in an electrophysiological organ bath. Extracellular recording of transmitter release from sympathetic varicosities was recorded before and after both application of each of the chemicals CH, TH or ap. The effect (“success rate”) of each of the chemicals was evaluated over 40 minutes. Success rate was measured as (number of successful transmissions/number of nerve stimulations)×100. Following this measurement, the chemicals were washed out.

rats = conditions: cited from earlier work
humans = conditions: cited from earlier work

Compound	effectiveness of the odour or odour combination from most effective to least effective (mean excitatory junction potentials, FIG. 1) [1]	function of smooth muscle (success rate of transmission) [2]	effect on the smooth muscle at the high concentration used [2]	resting period (rats)	hypnotic effect (humans)
CCC/C=C\CO [cis-2-hexen-1-ol, reference compound]	cis-2-hexen-1-ol>trans-3-hexen-1-ol	–	–	–	–
CC/C=C\CCO [cis-3-hexen-1-ol]	cis-3-hexen-1-ol>trans-2-hexenal	did not significantly affect	–	–	–
CCC/C=C/CO [trans-2-hexen-1-ol, reference compound]	least effective	–	–	–	–
CCC/C=C/C=O [trans-2-hexenal]	trans-2-hexenal>α-pinene	did not significantly affect	relaxed smooth muscle cells	–	–
CC/C=C/CCO [trans-3-hexen-1-ol, reference compound]	trans-3-hexen-1-ol>trans-2-hexen-1-ol	–	–	–	–
CC1=CCC2CC1C2(C)C (stereo not drawn) [α-pinene]	α-pinene>cis-2-hexen-1-ol	did not significantly affect	–	prolong the resting period	hypnotic effect
